Reference: patent publication US20160166688A9, “COMBINATION THERAPY OF AN AFUCOSYLATED CD20 ANTIBODY WITH BENDAMUSTINE” (Roche Glycart AG, priority 2009, published 2016)

Test system: human Z138 mantle cell lymphoma cell line
Experiment: Tumor growth inhibition study in vivo, Z138 xenograft
Design: species or system SCID beige mice
Conditions: for Antitumor activity / tumor growth compared to control group (words): 3 mg/kg i.p., study days 19-22, end of study day 33; for TGI (%): tumor growth inhibition vs. control group on day 33 after tumor cell inoculation, antibodies 1 mg/kg once weekly
[1] = i.p., bendamustine 3 mg/kg days 19-22

Compound	Antitumor activity / tumor growth compared to control group (words)	Antitumor activity / tumor growth compared to control group (words) (listed as bendamustine)	TGI (%) [1] [%]	Parametric TCR based on sAUC (vs. vehicle group 1, study end day 33, i.p., antibodies 1 mg/kg once weekly (days 19, 26), bendamustine 3 mg/kg days 19-22)
Cn1c(CCCC(=O)O)nc2cc(N(CCCl)CCCl)ccc21 [Bendamustine, 4-[5-[Bis(2-chloroethyl)amino]-1-methylbenzimidazol-2-yl]buta-noic acid]	comparable tumor growth as the control group	did not show any antitumor activity	0	0.9
B-HH6-B-KV1 GE: Afucosylated glyco-engineered humanized B-Ly1 type II anti-CD20 IgG1 antibody; VH SEQ ID NO:7 (B-HH6), VL SEQ ID No. 20 (B-KV1)			47	
